# Test results: patent publication US11214803B2, “Modulators of YAP1 expression” (Ionis Pharmaceuticals, Inc., priority 2019, dated 2022)
# Strand notation (5' to 3'): a small letter for the sugar, then the base; units joined by * are phosphorothioate-linked, units joined directly phosphodiester-linked; [ ] holds rarer units or linkages, { } end groups; capitals alone tell only the bases. e = 2'-O-(2-methoxyethyl) (MOE); k = constrained ethyl (cEt); [5mC] = 5-methylcytosine; d = 2'-deoxy (DNA); m = 2'-O-methyl
# System: Yap1 mRNA
# Assay: Antisense inhibition of human Yap1 in SNU-449 cells by modified oligonucleotides, single dose (Example 5, RTS36584)
# Type: cell-based
# Settings: Table 39; SNU-449 cells, 10,000 cells per well, free uptake, 2,000 nM oligonucleotide, approx. 48 hours; RTS36584; normalized to RIBOGREEN; Yap1 mRNA relative to untreated control
# Summary of the method: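 SNU-449 cells (10,000/well) took up 2,000 nM oligonucleotide by free uptake for about 48 h. Yap1 mRNA was measured by qRT-PCR with primer probe set RTS36584 and normalised to RIBOGREEN total RNA. Values are % of untreated control; asterisked oligos target the amplicon region.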
row,Substance,YAP1 (% UTC)
1,1198371 (kA*dT*dT*dG*dT*d[5mC]*dT*d[5mC]*dA*dT*dG*k[5mC]*e[5mC]*kT*eT*kA; antisense) [Compound 1198371],15
2,1198416 (kA*dG*dA*dT*dT*dT*dA*dG*dG*dA*dT*kG*e[5mC]*kA*eT*kG; antisense) [Compound 1198416],29
3,1198387 (kT*d[5mC]*dT*dA*dT*dA*dT*dT*dA*dG*dA*kG*eT*kA*eT*kG; antisense) [Compound 1198387],84
4,1198370 (kT*dG*dT*d[5mC]*dT*d[5mC]*dA*dT*dG*d[5mC]*d[5mC]*kT*eT*kA*eT*kA; antisense) [Compound 1198370],20
5,1198431 (kA*dA*dT*dA*dT*dT*dG*d[5mC]*dA*dA*dT*k[5mC]*eT*kG*eT*k[5mC]; antisense) [Compound 1198431],35

# Same assay, conditions: Table 40 (separate experiment); SNU-449 cells, 10,000 cells per well, free uptake, 2,000 nM oligonucleotide, approx. 48 hours; RTS36584; normalized to RIBOGREEN; Yap1 mRNA relative to untreated control
row,Substance,YAP1 (% UTC)
1,1198446 (kA*dA*d[5mC]*dT*dT*dT*dA*dA*dA*dG*dT*kG*eT*kA*eT*kG; antisense) [Compound 1198446],83
2,1198728 (kT*eA*kT*dT*dA*dG*dA*dG*dT*dA*dT*dG*eT*eG*kG*k[5mC]; antisense) [Compound 1198728],17
3,1198753 (k[5mC]*eT*kT*dT*dG*dG*dA*dA*dG*dA*dT*d[5mC]*eT*eG*kA*kA; antisense) [Compound 1198753],58

# Same assay, conditions: Table 41; SNU-449 cells, 10,000 cells per well, free uptake, 2,000 nM modified oligonucleotide, approximately 48 hours; RTS36584; normalized to RIBOGREEN; Yap1 mRNA relative to untreated control cells
row,Substance,YAP1 (% UTC)
1,1198653 (k[5mC]*kT*dT*dT*dT*dA*d[5mC]*dA*dT*dT*dA*dG*kG*eA*kA*e[5mC]; antisense) [Compound 1198653],64
2,1198637 (kA*kG*dT*dA*dT*dG*dT*dG*dG*d[5mC]*dA*dA*kT*eA*kA*eT; antisense) [Compound 1198637],64
3,1198674 (antisense kA*kG*dA*dT*dT*dT*dA*dG*dG*dA*dT*dG*k[5mC]*eA*kT*eG) [Compound 1198674],21
4,1198641 (kA*kT*dT*dA*dG*dA*dG*dT*dA*dT*dG*dT*kG*eG*k[5mC]*eA; antisense) [Compound 1198641],15
5,1198675 (antisense k[5mC]*kA*dG*dA*dT*dT*dT*dA*dG*dG*dA*dT*kG*e[5mC]*kA*eT) [Compound 1198675],35

# Same assay, conditions: Table 42 (separate experiment); SNU-449 cells, 10,000 cells per well, free uptake, 2,000 nM modified oligonucleotide, approximately 48 hours; RTS36584; normalized to RIBOGREEN; Yap1 mRNA relative to untreated control cells
row,Substance,YAP1 (% UTC)
1,1198226 (kG*k[5mC]*dA*d[5mC]*dT*dT*dT*dT*dA*d[5mC]*dA*eT*eT*eA*kG*kG) [Compound 1198226],23
2,1198202 (kG*kA*dA*dA*dT*dT*dG*dT*d[5mC]*dT*d[5mC]*eA*eT*eG*k[5mC]*k[5mC]; antisense) [Compound 1198202],14

# Same assay, conditions: Table 43 experiment; SNU-449 cells, 10,000 cells per well, free uptake, 2,000 nM, approximately 48 hours; RTS36584; Yap1 mRNA normalized to RIBOGREEN, relative to untreated control cells
row,Substance,YAP1 (% UTC)
1,1198466 (antisense kA*kG*dA*dG*dT*dA*dT*dG*dT*dG*dG*e[5mC]*kA*eA*kT*eA) [Compound 1198466],12
2,1198279 (k[5mC]*kT*dA*dA*dG*dT*dA*dA*dG*dG*dT*eT*eT*e[5mC]*k[5mC]*k[5mC]; antisense) [Compound 1198279],43
3,1198457 (kA*kT*dT*dG*dT*d[5mC]*dT*d[5mC]*dA*dT*dG*e[5mC]*k[5mC]*eT*kT*eA) [Compound 1198457],18
4,1198271 (kT*kT*dA*dA*dA*dG*dT*dG*dT*dA*dT*eG*eT*e[5mC]*kA*kG) [Compound 1198271],44

# Same assay, conditions: Table 44 experiment; SNU-449 cells, 10,000 cells per well, free uptake, 2,000 nM, approximately 48 hours; RTS36584; Yap1 mRNA normalized to RIBOGREEN, relative to untreated control cells
row,Substance,YAP1 (% UTC)
1,1198519 (kG*kT*dA*dA*dT*dA*dT*dT*dG*d[5mC]*dA*eA*kT*e[5mC]*kT*eG; antisense) [Compound 1198519],20
2,1198504 (kT*k[5mC]*dA*dG*dA*dT*dT*dT*dA*dG*dG*eA*kT*eG*k[5mC]*eA; antisense) [Compound 1198504],15
3,1198492 (antisense kG*k[5mC]*dT*dT*dT*dG*dG*dA*dA*dG*dA*eT*k[5mC]*eT*kG*eA) [Compound 1198492],15

# Same assay, conditions: Table 45; Yap1 mRNA as percent of untreated control, SNU-449 cells, single dose
row,Substance,YAP1 (% UTC)
1,1198948 (kG*kA*d[5mC]*dA*dA*d[5mC]*dT*d[5mC]*dT*dT*dA*kT*dA*kT*dG*kG; antisense) [Compound 1198948],96
2,1198936 (kA*kG*dA*dT*dT*dT*dA*dG*dG*dA*dT*kG*d[5mC]*kA*dT*kG; antisense) [Compound 1198936],38
3,1198938 (kT*k[5mC]*dA*dG*dA*dT*dT*dT*dA*dG*dG*kA*dT*kG*d[5mC]*kA; antisense) [Compound 1198938],59
4,1198957 (kT*kT*dT*dA*dT*dG*dT*dA*dA*dT*dA*kT*dT*kG*d[5mC]*kA; antisense) [Compound 1198957],81

# Same assay, conditions: Table 46; Yap1 mRNA as percent of untreated control, SNU-449 cells, single dose
row,Substance,YAP1 (% UT)
1,1198864 (kA*kT*dA*dT*dT*dG*d[5mC]*dA*dA*dT*d[5mC]*kT*eG*kT*e[5mC]*kT; antisense) [Compound 1198864],56
2,1198851 (CAGATTTAGGATGCAT; antisense; chemistry not fully specified) [Compound 1198851],82

# Same assay, conditions: Table 48; Yap1 mRNA level relative to untreated control; modified oligonucleotides targeting SEQ ID NO.: 1 and 2
row,Substance,YAP1 (% UT)
1,1198325 (kA*kG*kG*dA*dT*dG*d[5mC]*dA*dT*dG*dG*dT*kT*eT*kT*eT; antisense) [Compound 1198325],34

# Same assay, conditions: Table 49; Yap1 mRNA level relative to untreated control; modified oligonucleotides targeting SEQ ID NO.: 1 and 2
row,Substance,YAP1 (% UT)
1,1198354 (kA*kA*kG*dT*dG*dT*dA*dT*dG*dT*d[5mC]*dA*kG*eA*kA*eG; antisense) [Compound 1198354],6
2,1198580 (antisense kG*kT*kG*d[5mC]*dT*dT*dT*dG*dG*dA*dA*dG*kA*kT*k[5mC]*eT) [Compound 1198580],43
3,1198559 (antisense kT*k[5mC]*kT*dA*dT*dA*dT*dT*dA*dG*dA*dG*kT*kA*kT*eG) [Compound 1198559],55
4,1198567 (antisense k[5mC]*kT*kT*dT*dT*dA*d[5mC]*dA*dT*dT*dA*dG*kG*kA*kA*e[5mC]) [Compound 1198567],54

# Same assay, conditions: Table 50; Yap1 mRNA remaining as percent of untreated control (UT), SNU-449 cells, single dose
row,Substance,YAP1 (% UT)
1,1198623 (k[5mC]*kT*kA*dA*dG*dT*dA*dA*dG*dG*dT*dT*kT*k[5mC]*k[5mC]*e[5mC]; antisense) [Compound 1198623],9
2,1198597 (antisense kA*k[5mC]*kT*d[5mC]*dT*dT*dA*dT*dA*dT*dG*dG*kT*kT*kT*eT) [Compound 1198597],27
3,1197230 (antisense kT*kG*kG*dA*mA*dA*dT*dT*dG*dT*d[5mC]*dT*d[5mC]*kA*kT*kG) [Compound 1197230],29

# Same assay, conditions: Table 51; Yap1 mRNA remaining as percent of untreated control (UT), SNU-449 cells, single dose
row,Substance,YAP1 (% UT)
1,1197253 (antisense kA*kG*kT*dG*mC*dT*dT*dT*dG*dG*dA*dA*dG*kA*kT*k[5mC]) [Compound 1197253],58
2,1197316 (kT*kA*kA*dG*mU*dA*dA*dG*dG*dT*dT*dT*d[5mC]*k[5mC]*k[5mC]*kA; antisense) [Compound 1197316],46
3,1197306 (k[5mC]*kA*kA*d[5mC]*mU*d[5mC]*dT*dT*dA*dT*dA*dT*dG*kG*kT*kT; antisense) [Compound 1197306],77
4,1197308 (kA*kA*kT*dA*mU*dT*dG*d[5mC]*dA*dA*dT*d[5mC]*dT*kG*kT*k[5mC]; antisense) [Compound 1197308],49

# Same assay, conditions: Table 52; Yap1 mRNA, modified oligonucleotides targeting SEQ ID NO: 1 and 2
row,Substance,YAP1 (% UT)
1,1200862 (kT*kT*kT*dA*dA*mA*dG*dT*dG*dT*dA*dT*dG*kT*k[5mC]*kA; antisense) [Compound 1200862],17
2,1200834 (kA*kG*kA*dT*dT*mU*dA*dG*dG*dA*dT*dG*d[5mC]*kA*kT*kG; antisense) [Compound 1200834],37

# Same assay, conditions: Yap1 mRNA, percent of untreated control; modified oligonucleotides targeting SEQ ID NO: 1 and 2; Table 47
row,Substance,YAP1 (% UT)
1,1197188 (antisense kT*kT*kG*dG*dA*dA*dG*dA*dT*d[5mC]*dT*dG*dA*kA*kA*k[5mC]) [Compound 1197188],96
2,1198879 (k[5mC]*kT*dT*dT*dA*dA*dA*dG*dT*dG*dT*kA*eT*kG*eT*k[5mC]; antisense) [Compound 1198879],29
3,1197180 (antisense kA*kT*kG*dG*dA*dA*dA*dT*dT*dG*dT*d[5mC]*dT*k[5mC]*kA*kT) [Compound 1197180],47
